US11214803B2, “Modulators of YAP1 expression” (Ionis Pharmaceuticals, Inc., priority 2019, dated 2022)
pIC50: −log10 of the molar value. Strand notation (5' to 3'): a small letter for the sugar, then the base; units joined by * are phosphorothioate-linked, units joined directly phosphodiester-linked; [ ] holds rarer units or linkages, { } end groups; capitals alone tell only the bases. k = constrained ethyl (cEt); [5mC] = 5-methylcytosine; d = 2'-deoxy (DNA)

System: Yap1 mRNA
Assay: Dose-dependent inhibition of human Yap1 in A-431 cells (Example 8, 10,000 cells per well, RTS4814)
Assay type: cell-based
Details: free uptake, approximately 48 hours, RTS4814; for Yap1 mRNA, % UTC: A-431 cells, 10,000 cells per well; for pIC50: A-431 cells, linear regression on log/linear plot
Method in brief: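 Yap1 mRNA, normalized to RIBOGREEN total RNA and expressed as % untreated control, was read with RTS4814 about 48 h after free-uptake oligonucleotide treatment of A-431 cells at 10,000 cells/well. IC50 derived by linear regression of log/linear data.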

Substance | Yap1 mRNA, % UTC (31.3 nM) | Yap1 mRNA, % UTC (125.0 nM) | Yap1 mRNA, % UTC (500.0 nM) | Yap1 mRNA, % UTC (2000.00 nM) | pIC50
1075749 (kA*kA*kT*dT*dA*dT*dG*dA*dA*dT*dG*dA*dT*kG*kG*kG; antisense) [compound 1075749] | 46 % UTC | 22 % UTC | 7 % UTC | 4 % UTC | > 7.70
1075233 (kG*kT*kA*dA*dT*dT*dT*dA*dT*d[5mC]*dA*dG*d[5mC]*k[5mC]*kA*kT; antisense) [compound 1075233] | 45 % UTC | 12 % UTC | 5 % UTC | 3 % UTC | > 7.70
1076323 (k[5mC]*kA*kA*dT*dT*dT*dA*d[5mC]*dA*dA*dG*dT*dG*kA*kG*k[5mC]; antisense) [compound 1076323] | 41 % UTC | 35 % UTC | 13 % UTC | 5 % UTC | > 7.70
1076004 (kT*kA*kA*dT*dT*dT*dA*dA*dT*dG*dG*d[5mC]*dT*kT*kG*k[5mC]; antisense) [compound 1076004] | 27 % UTC | 7 % UTC | 3 % UTC | 2 % UTC | > 7.70
1076298 (kG*kT*kT*dA*dT*dA*dA*dA*dG*dA*d[5mC]*d[5mC]*d[5mC]*kA*kA*kT; antisense) [compound 1076298] | 92 % UTC | 58 % UTC | 29 % UTC | 18 % UTC | 6.70
1074315 (antisense kG*kA*kT*dT*dG*dA*dT*dA*dT*dT*d[5mC]*d[5mC]*dG*k[5mC]*kA*kT) [compound 1074315] | 57 % UTC | 26 % UTC | 9 % UTC | 5 % UTC | 7.52
1076330 (antisense kG*kA*kA*dT*dT*dA*dT*dA*d[5mC]*dT*dG*dG*d[5mC]*kT*kA*k[5mC]) [compound 1076330] | 57 % UTC | 31 % UTC | 9 % UTC | 4 % UTC | 7.40
1074594 (DNA kT*kA*kG*dG*dA*dG*d[5mC]*dA*dA*dG*dT*d[5mC]*dT*kT*kG*kT) [compound 1074594] | 53 % UTC | 23 % UTC | 10 % UTC | 5 % UTC | > 7.70
1076256 (kT*kT*kA*dT*dT*dT*dA*dG*dG*d[5mC]*d[5mC]*d[5mC]*d[5mC]*kA*kT*kA; antisense) [compound 1076256] | 68 % UTC | 33 % UTC | 11 % UTC | 6 % UTC | 7.00
1074795 (k[5mC]*k[5mC]*kA*dA*dA*dT*d[5mC]*dA*dA*dT*dG*dT*dG*k[5mC]*kT*k[5mC]; antisense) [compound 1074795] | 38 % UTC | 14 % UTC | 7 % UTC | 5 % UTC | > 7.70
1074535 (kG*kT*kA*dA*dT*dA*dG*d[5mC]*dT*d[5mC]*dT*dT*dT*k[5mC]*kT*kA; antisense) [compound 1074535] | 57 % UTC | 21 % UTC | 7 % UTC | 5 % UTC | > 7.70
1074629 (DNA kG*kA*kG*dA*dT*dT*dT*dT*dA*dT*dG*d[5mC]*d[5mC]*kT*kG*kT; antisense) [compound 1074629] | 21 % UTC | 5 % UTC | 3 % UTC | 3 % UTC | > 7.70
1074560 (DNA k[5mC]*k[5mC]*kA*dA*dT*d[5mC]*dG*dA*dG*dA*d[5mC]*dT*dT*kA*kA*kA) [compound 1074560] | 50 % UTC | 16 % UTC | 6 % UTC | 4 % UTC | > 7.70
1075816 (kT*kA*kG*dT*dA*dT*dA*dA*dA*dG*d[5mC]*dA*dG*kG*kG*k[5mC]; antisense) [compound 1075816] | 66 % UTC | 29 % UTC | 12 % UTC | 8 % UTC | 7.00
1074245 (antisense kA*kG*kA*dA*dG*dT*dA*dT*d[5mC]*dT*d[5mC]*dT*dG*kA*k[5mC]*k[5mC]) [compound 1074245] | 47 % UTC | 21 % UTC | 8 % UTC | 5 % UTC | > 7.70
